From US12077503B2, “Substituted cyclic amides and their use as herbicides” (FMC CORPORATION, priority 2015, dated 2024)

Assays:
Format in all cases: in vivo
[1] = system: Kochia (Kochia scoparia); test: Test A preemergence
How it was run: (§1)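 Visual injury, scored on a 0–100 scale relative to untreated controls, was recorded about 10 d after application. Treatments were a preemergence soil spray over planted seeds or a postemergence spray on plants at the one- to two-leaf stage, 2 to 10 cm tall, all in loam soil–sand blend in the greenhouse.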

[2] = system: ragweed (common ragweed, Ambrosia elatior); test: Test A preemergence
How it was run: as §1

[3] = system: pigweed (Amaranthus retroflexus); test: Test A preemergence
[4] = system: giant foxtail (Setaria faberii); test: Test A preemergence
How it was run: as §1

[5] = system: ryegrass, Italian (Italian ryegrass, Lolium multiflorum); test: Test A preemergence
How it was run: as §1

[6] = system: barnyardgrass (Echinochloa crus-galli); test: Test A preemergence
How it was run: as §1

[7] = system: ducksalad (Heteranthera limosa); test: Test B flooded paddy test; conditions: Flood, 0 to 100 scale where 0 is no effect and 100 is complete control; for Plant response rating, Ducksalad: 13 to 15 d
How it was run: (§2)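 Compound goes directly into floodwater once pots are flooded 3 cm above soil, targeting plants at two leaves; the water depth is then held for the test duration. Plants sit 13–15 d in a greenhouse and are rated visually, 100 denoting complete control.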

[8] = system: sedge, umbrella (small-flower umbrella sedge, Cyperus difformis); test: Test B flooded paddy test; conditions: Flood, 0 to 100 scale where 0 is no effect and 100 is complete control; for Plant response rating, Sedge, Umbrella: 13 to 15 d
How it was run: as §2

[9] = system: rice (Oryra sativa); test: Test B flooded paddy test; conditions: Flood, 0 to 100 scale where 0 is no effect and 100 is complete control; for Plant response rating, Rice: 13 to 15 d
How it was run: as §2

[10] = system: barnyardgrass (Echinochloa crus-galli); test: Test B flooded paddy test; conditions: Flood, 0 to 100 scale where 0 is no effect and 100 is complete control; for Plant response rating, Barnyardgrass: 13 to 15 d
How it was run: as §2

[11] = system: Kochia (Kochia scoparia); test: Test A postemergence
How it was run: as §1

[12] = system: Galium (catchweed bedstraw, Galium aparine); test: Test A postemergence
How it was run: as §1

[13] = system: ragweed (common ragweed, Ambrosia elatior); test: Test A postemergence
How it was run: as §1

[14] = system: wheat (Triticum aestivum); test: Test A postemergence
How it was run: as §1

[15] = system: pigweed (Amaranthus retroflexus); test: Test A postemergence
How it was run: as §1

[16] = system: corn (Zea mays); test: Test A postemergence
How it was run: as §1

[17] = system: giant foxtail (Setaria faberii); test: Test A postemergence
How it was run: as §1

[18] = system: ryegrass, Italian (Italian ryegrass, Lolium multiflorum); test: Test A postemergence
How it was run: as §1

[19] = system: barnyardgrass (Echinochloa crus-galli); test: Test A postemergence
How it was run: as §1

[20] = system: blackgrass (Alopecurus myosuroides); test: Test A postemergence
How it was run: as §1

[21] = 125 g ai/ha, preemergence, visual rating after approx. 10 d, 0 to 100 scale where 0 is no effect and 100 is complete control
[22] = 500 g ai/ha, preemergence, 0 to 100 scale, 0 = no effect, 100 = complete control
[23] = 125 g ai/ha, postemergence, visual injury after approximately 10 d, 0 to 100 scale (0 no effect, 100 complete control)
[24] = 500 g ai/ha, postemergence, visual injury, 0 to 100 scale (0 no effect, 100 complete control), approx. 10 d
[25] = 125 g ai/ha, Preemergence, visual injury rating after approximately 10 d
[26] = 500 g ai/ha, preemergence, visual injury rating about 10 d after treatment, 0 to 100 scale (0 no effect, 100 complete control)
[27] = 125 g ai/ha, Postemergence, visual injury after approximately 10 d, 0 to 100 scale where 0 is no effect and 100 is complete control
[28] = 125 g ai/ha, Preemergence, visual injury after approximately 10 d, 0 to 100 scale where 0 is no effect and 100 is complete control
[29] = Preemergence, 500 g ai/ha, visual injury approx. 10 d
[30] = 125 g ai/ha, postemergence, visual injury rating on 0 to 100 scale (0 no effect, 100 complete control), approx. 10 d
[31] = Postemergence, 500 g ai/ha, 0 to 100 scale where 0 is no effect and 100 is complete control
[32] = 125 g ai/ha, postemergence, visual rating after approx. 10 d, 0 to 100 scale (0 no effect, 100 complete control)

O=C1NCC(c2cccc(OC(F)(F)C(F)F)c2)C1C(=O)Nc1ccc(F)cc1F (racemic) [Compound 696]
80: Plant response rating, Barnyardgrass [6, 21] | Plant response rating, Foxtail, Giant [17, 23] | Plant response rating, Foxtail, Giant [17, 24] | Plant response rating, Barnyardgrass [19, 23] | Plant response rating, Barnyardgrass [19, 24]
40: Plant response rating, Kochia [1, 21] | Plant response rating, Ragweed [2, 22] | Plant response rating, Kochia [11, 24] | Plant response rating, Ragweed [13, 24] | Plant response rating, Corn [16, 23] | Plant response rating, Ryegrass, Italian [18, 24] | Plant response rating, Blackgrass [20, 24]
50: Plant response rating, Galium [12, 23] | Plant response rating, Wheat [14, 24]
90: Plant response rating, Foxtail, Giant [4, 21] | Plant response rating, Foxtail, Giant [4, 22] | Plant response rating, Barnyardgrass [6, 22] | Plant response rating, Ducksalad ([7]; 500 g ai/ha)
30: Plant response rating, Pigweed [3, 22] | Plant response rating, Ryegrass, Italian [5, 21] | Plant response rating, Kochia [11, 23] | Plant response rating, Wheat [14, 23] | Plant response rating, Pigweed [15, 23] | Plant response rating, Ryegrass, Italian [18, 23] | Plant response rating, Blackgrass [20, 23]
0: Plant response rating, Ragweed [2, 21] | Plant response rating, Sedge, Umbrella ([8]; 500 g ai/ha)
35: Plant response rating, Rice ([9]; 500 g ai/ha)
20: Plant response rating, Pigweed [3, 21] | Plant response rating, Ragweed [13, 23]
75: Plant response rating, Barnyardgrass ([10]; 500 g ai/ha)
60: Plant response rating, Kochia [1, 22] | Plant response rating, Ryegrass, Italian [5, 22] | Plant response rating, Pigweed [15, 24]
70: Plant response rating, Galium [12, 24] | Plant response rating, Corn [16, 24]

Cc1ccc([C@H]2CN(C)C(=O)[C@@H]2C(=O)Nc2ccccc2[S+](C)[O-])cc1Cl (stereo partly drawn) [Compound 1017]
60: Pigweed plant response rating [3, 26] | Plant response rating, Kochia [11, 24] | Plant response rating, Wheat [14, 24]
30: Rice plant response rating ([9]; 250 g ai/ha) | Plant response rating, Ryegrass, Italian [18, 27]
0: Kochia plant response rating (0 to 100 scale, 0 is no effect, 100 is complete control) [1, 25] | Ragweed plant response rating (0 to 100 scale, 0 is no effect, 100 is complete control) [2, 25] | Ryegrass, Italian plant response rating (0 to 100 scale, 0 is no effect, 100 is complete control) [5, 25] | Sedge, Umbrella plant response rating ([8]; 250 g ai/ha) | Plant response rating, Ragweed [13, 27] | Plant response rating, Pigweed [15, 27] | Plant response rating, Blackgrass [20, 27]
70: Kochia plant response rating [1, 26] | Ryegrass, Italian plant response rating [5, 26] | Barnyardgrass plant response rating ([10]; 250 g ai/ha) | Plant response rating, Galium [12, 24]
90: Ragweed plant response rating [2, 26] | Foxtail, Giant plant response rating (0 to 100 scale, 0 is no effect, 100 is complete control) [4, 25] | Foxtail, Giant plant response rating [4, 26] | Barnyardgrass plant response rating (0 to 100 scale, 0 is no effect, 100 is complete control) [6, 25] | Barnyardgrass plant response rating [6, 26] | Ducksalad plant response rating ([7]; 250 g ai/ha) | Plant response rating, Corn [16, 24] | Plant response rating, Foxtail, Giant [17, 27] | Plant response rating, Foxtail, Giant [17, 24] | Plant response rating, Barnyardgrass [19, 27] | Plant response rating, Barnyardgrass [19, 24]
50: Pigweed plant response rating (0 to 100 scale, 0 is no effect, 100 is complete control) [3, 25] | Plant response rating, Ryegrass, Italian [18, 24]
40: Plant response rating, Kochia [11, 27] | Plant response rating, Galium [12, 27] | Plant response rating, Ragweed [13, 24] | Plant response rating, Pigweed [15, 24] | Plant response rating, Blackgrass [20, 24]
80: Plant response rating, Corn [16, 27]
20: Plant response rating, Wheat [14, 27]

O=C1NCC(c2cc(F)cc(Cl)c2)C1C(=O)Nc1ccccc1F (stereo not drawn) [Compound 491]
20: Kochia plant response rating (0 to 100 scale, 0 is no effect, 100 is complete control) [1, 29] | Plant response rating, Ryegrass, Italian [5, 28] | Plant response rating, Kochia [11, 31] | Plant response rating, Ragweed [13, 31] | Plant response rating, Pigweed [15, 31] | Blackgrass plant response rating [20, 30]
60: Plant response rating, Wheat [14, 31] | Corn plant response rating [16, 30]
90: Plant response rating, Foxtail, Giant [4, 28] | Foxtail, Giant plant response rating (0 to 100 scale, 0 is no effect, 100 is complete control) [4, 29] | Plant response rating, Barnyardgrass [6, 28] | Barnyardgrass plant response rating (0 to 100 scale, 0 is no effect, 100 is complete control) [6, 29] | Plant response rating, Corn [16, 31] | Barnyardgrass plant response rating [19, 30]
30: Ryegrass, Italian plant response rating (0 to 100 scale, 0 is no effect, 100 is complete control) [5, 29] | Plant response rating, Galium [12, 31] | Wheat plant response rating [14, 30] | Plant response rating, Ryegrass, Italian [18, 31]
40: Plant response rating, Ducksalad ([7]; 250 g ai/ha)
50: Plant response rating, Blackgrass [20, 31]
80: Foxtail, Giant plant response rating [17, 30] | Plant response rating, Foxtail, Giant [17, 31] | Plant response rating, Barnyardgrass [19, 31]
0: Plant response rating, Kochia [1, 28] | Plant response rating, Ragweed [2, 28] | Ragweed plant response rating (0 to 100 scale, 0 is no effect, 100 is complete control) [2, 29] | Plant response rating, Pigweed [3, 28] | Pigweed plant response rating (0 to 100 scale, 0 is no effect, 100 is complete control) [3, 29] | Plant response rating, Sedge, Umbrella ([8]; 250 g ai/ha) | Plant response rating, Rice ([9]; 250 g ai/ha) | Plant response rating, Barnyardgrass ([10]; 250 g ai/ha) | Kochia plant response rating [11, 30] | Galium plant response rating [12, 30] | Ragweed plant response rating [13, 30] | Pigweed plant response rating [15, 30] | Ryegrass, Italian plant response rating [18, 30]

O=C1NCC(c2cc(C(F)(F)F)cc(C(F)(F)F)c2)C1C(=O)Nc1cccc(F)c1F (stereo not drawn) [Compound 588]
0: Plant response rating, Kochia [1, 28] | Kochia plant response rating (0 to 100 scale, 0 is no effect, 100 is complete control) [1, 29] | Plant response rating, Ragweed [2, 28] | Ragweed plant response rating (0 to 100 scale, 0 is no effect, 100 is complete control) [2, 29] | Plant response rating, Pigweed [3, 28] | Pigweed plant response rating (0 to 100 scale, 0 is no effect, 100 is complete control) [3, 29] | Plant response rating, Sedge, Umbrella ([8]; 250 g ai/ha) | Plant response rating, Kochia [11, 32] | Plant response rating, Galium [12, 32] | Plant response rating, Ragweed [13, 32] | Plant response rating, Wheat [14, 32] | Plant response rating, Corn [16, 32] | Plant response rating, Ryegrass, Italian [18, 32]
80: Plant response rating, Ryegrass, Italian [5, 28] | Plant response rating, Foxtail, Giant [17, 32] | Plant response rating, Foxtail, Giant [17, 31] | Plant response rating, Barnyardgrass [19, 32] | Plant response rating, Barnyardgrass [19, 31]
40: Plant response rating, Wheat [14, 31] | Plant response rating, Pigweed [15, 31]
50: Ryegrass, Italian plant response rating (0 to 100 scale, 0 is no effect, 100 is complete control) [5, 29] | Plant response rating, Ragweed [13, 31] | Plant response rating, Ryegrass, Italian [18, 31] | Plant response rating, Blackgrass [20, 31]
70: Plant response rating, Ducksalad ([7]; 250 g ai/ha) | Plant response rating, Kochia [11, 31] | Plant response rating, Corn [16, 31]
90: Plant response rating, Foxtail, Giant [4, 28] | Foxtail, Giant plant response rating (0 to 100 scale, 0 is no effect, 100 is complete control) [4, 29] | Plant response rating, Barnyardgrass [6, 28] | Barnyardgrass plant response rating (0 to 100 scale, 0 is no effect, 100 is complete control) [6, 29]
20: Plant response rating, Pigweed [15, 32] | Plant response rating, Blackgrass [20, 32]
30: Plant response rating, Rice ([9]; 250 g ai/ha) | Plant response rating, Barnyardgrass ([10]; 250 g ai/ha) | Plant response rating, Galium [12, 31]
